One test deals with human brain capillaries. Nature of the test: Accumulation/uptake of [125I]-p97 in isolated human brain capillaries. Format: binding. How it is done:
FIG. 5. Accumulation of p97 in human brain capillaries. Accumulation of [^125I]-p97 was measured at 37° C. for 1 h in isolated human brain capillaries (100 μg/assay). The incubation medium contained [^125I]-p97 and a final concentration of 100 nM p97 in Ringer/Hepes solution. The accumulation of [^125I]-p97 was performed in the presence or absence of 5 μm cold-p97, holo-transferrin or lactoferrin. […] The suspension was filtered under vacuum through a […] pore size Millipore filter. The filter was rinsed with 8 ml of stop solution, and the radioactivity was counted. Nonspecific binding of the radioactivity to the capillaries was determined by the addition of the ice-cold stop solution to the capillaries before adding the incubation medium. This value was subtracted from accumulation values obtained following an 1 h incubation. The results were expressed as ng of [^125I]-p97 accumulated per μg of brain capillaries.
FIG. 16 illustrates the identification of a p97 receptor according to ligand specificity. FIG. 16a, Uptake of [^125I]-p97 into human brain capillaries. The uptake of [^125I]-p97 at 100 nM (control) into isolated human brain capillaries was measured for 1 h at 37° C. in the presence of a 50-fold molar excess of unlabelled p97, human holo-transferrin or human lactoferrin. (*[…] Student's t-test (n=5); FIG. 16b, Effect of RAP on [^125I]-p97 transcytosis across BBCEC monolayers. Apical-to-basal transport of [^125I]-p97 was measured in the presence (closed circles) or absence (open circles) of RAP (25 μg/ml) (n=5); FIG. 16c, Inhibition of bovine [^125I]-lactoferrin transport by p97. Transcytosis of bovine [^125I]-lactoferrin (50 nM) was measured in the presence (closed circles) or absence (open circles) of unlabelled p97 (5 μM) at 37° C. (n=3).
A. Isolation of human brain capillaries. Capillaries of the blood-brain barrier were isolated from human brain cortex by a procedure previously described by Dallaire, et al., J. Biol. Chem., 267:22323-22327 (1992) with slight modifications. Human brains were obtained post-mortem. The brain was cleared of meninges, superficial large blood vessels and choroid plexus. All the following procedures were performed at 4° C. The cerebral cortex was homogenized in 5 volumes of Ringer/Hepes solution with a Polytron (Brinkman Instruments, Rexdale, Ontario, Canada). The homogenate was mixed with an equal volume of Dextran T-70 (27 g in 100 ml of Ringer/Hepes). The suspension was centrifuged at 25,000 g for 10 min. The pellet was resuspended in 30 ml of Ringer/Hepes and passed through a 250 μm nylon mesh screen. […]
B. p97 accumulation in human brain capillaries. […] Accumulation of [^125I]-p97 was measured at 37° C. for 1 h in isolated human brain capillaries (100 μg/assay). […]

Another test addresses BBCEC monolayers. To be noted: +saponin, published value; cited from earlier work.

The values below come from patent US7977317B2, “Compositions and methods for modulating blood-brain barrier transport” (Raptor Pharmaceutical Inc., priority 2001, dated 2011).

What is called Kd is a measure of binding affinity in units of concentration.

“transferrin: transferrin (Tf), iron-binding serum protein used as comparator and competitor”: the “Inhibition of [125I]-p97 binding/accumulation in human brain capillaries” value in the test with human brain capillaries (competitor 5 micromolar, 100 nM p97, 1 h at 37° C. (FIG. 5)) is on record as “no significant competition”. Further, in the test with human brain capillaries (performed identically to FIG. 5 (FIG. 6)), the “Competition with p97 for receptor binding in human brain capillaries, repeat experiment” value is recorded as “not”. Also, the Kd at BBCEC monolayers is 11 nM.
